Data as given in publication PMC7158045 (BMC Plant Biology, 2020).

Columns and labels:
Test in all cases: biochemical
ZmDRIK1-R187-P492 = molecular target: T1, ZmDRIK1-R187-P492 (Zea mays, UniProt C0P4K9); details: read-out: dTm B, DSF, Boltzmann fit, 0.1% DMSO
T1 construct: kinase domain, R187-P492
T1 sequence (C0P4K9 1-514): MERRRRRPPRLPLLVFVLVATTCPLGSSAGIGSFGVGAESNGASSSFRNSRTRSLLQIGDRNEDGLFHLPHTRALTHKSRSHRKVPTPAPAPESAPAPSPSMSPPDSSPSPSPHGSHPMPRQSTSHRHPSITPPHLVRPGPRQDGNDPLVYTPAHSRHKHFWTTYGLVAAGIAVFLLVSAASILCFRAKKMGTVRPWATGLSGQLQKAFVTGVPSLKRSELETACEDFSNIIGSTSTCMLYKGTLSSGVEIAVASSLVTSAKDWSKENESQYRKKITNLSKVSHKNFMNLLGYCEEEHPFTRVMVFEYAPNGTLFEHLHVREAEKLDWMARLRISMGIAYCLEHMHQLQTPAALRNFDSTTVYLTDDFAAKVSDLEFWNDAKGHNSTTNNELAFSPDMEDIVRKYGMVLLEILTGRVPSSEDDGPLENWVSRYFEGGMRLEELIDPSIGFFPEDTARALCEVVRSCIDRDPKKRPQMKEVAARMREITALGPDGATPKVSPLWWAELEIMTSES

ZmDRIK1-K217-S514 = molecular target: T2, ZmDRIK1-K217-S514 (Zea mays, UniProt C0P4K9); details: read-out: dTm B, sheet ZmDRIK1-K217-S514;; DSF, Boltzmann fit, 0.1% DMSO
T2 construct: kinase domain, K217-S514
T2 sequence (C0P4K9 1-514): T1 sequence (C0P4K9 1-514)

[1] = molecular target: T3, ZmDRIK1 (DROUGHT RESPONSIVE INACTIVE KINASE 1), kinase domain (Zea mays, UniProt C0P4K9); details: read-out: dTm B, sheet ZmDRIK1-R187-S514;; DSF, Boltzmann fit, 0.1% DMSO
T3 construct: gene ZEAMMB73_Zm00001d028770; ZmDRIK1-KD R187-S514 (kinase domain)
T3 sequence (C0P4K9 187-514): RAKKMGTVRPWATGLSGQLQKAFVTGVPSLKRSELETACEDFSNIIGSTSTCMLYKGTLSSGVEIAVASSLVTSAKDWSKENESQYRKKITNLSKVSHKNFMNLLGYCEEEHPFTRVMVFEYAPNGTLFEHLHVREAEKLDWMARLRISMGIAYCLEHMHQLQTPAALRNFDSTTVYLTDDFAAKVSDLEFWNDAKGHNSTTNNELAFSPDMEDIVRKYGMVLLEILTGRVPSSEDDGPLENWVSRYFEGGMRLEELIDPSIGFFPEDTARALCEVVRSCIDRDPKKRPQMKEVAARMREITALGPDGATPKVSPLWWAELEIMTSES

ZmDRIK1-K217-P492 = molecular target: T4, ZmDRIK1-K217-P492 (Zea mays, UniProt C0P4K9); details: read-out: dTm B, sheet ZmDRIK1-K217-P492;; DSF, Boltzmann fit, 0.1% DMSO
T4 construct: kinase domain, K217-P492
T4 sequence (C0P4K9 1-514): T1 sequence (C0P4K9 1-514)

ΔTm at 10 µM (ZmDRIK1-R187-P492) [°C] | ΔTm at 10 µM (ZmDRIK1-K217-S514) [°C] | ΔTm at 10 µM [1] [°C] | ΔTm at 10 µM (ZmDRIK1-K217-P492) [°C] | SMILES
-0.226 | -0.293 | -0.736 | -0.951 | Cn1cc(-c2cnn3c(N)c(Br)c([C@@H]4CCCNC4)nc23)cn1 [MK-8776 (SCH 900776)]
-0.341 | -0.583 | -0.958 | -1.36 | O=C(O)c1ccc(Nc2ncc3c(n2)-c2ccc(Cl)cc2C(c2c(F)cccc2F)=NC3)cc1 [MLN8054]
-0.246 | -0.217 | -0.818 | -0.773 | Cc1ccc(NC(=O)c2ccc(CN3CCN(C)CC3)cc2)cc1Nc1nc(-c2cccnc2)cs1 [Masitinib (AB1010)]
-0.101 | -0.233 | -0.178 | -0.0433 | CNC(=O)c1nn(C)c2c1C(C)(C)Cc1cnc(Nc3ccc(N4CCN(C)CC4)cc3)nc1-2 [Milciclib (PHA-848125)]
-0.24 | -0.221 | -0.808 | -1.01 | CC1(C)CNc2cc(NC(=O)c3cccnc3NCc3ccncc3)ccc21 [Motesanib Diphosphate (AMG-706)]
-0.156 | -0.334 | -0.964 | -0.803 | FC(F)(F)c1ccc(/C=C/c2nc(COc3ccc(CCCCn4ccnn4)cc3)co2)cc1 [Mubritinib (TAK 165)]
-0.749 | -0.517 | -1.15 | -1.1 | CN1CCN(c2ccc(OC(F)(F)F)c(Nc3ncc4c(n3)-c3c(c(C(N)=O)nn3CCO)CC4)c2)CC1 [NMS-P937 (NMS1286937)]
-0.128 | -0.555 | -0.461 | -0.485 | CCN(CC)CCCC(C)Nc1nc(C)cc(Nc2ccc3nc(C)cc(N)c3c2)n1 (stereo not shown) [NSC 23766]
-0.309 | -1.59 | -0.875 | -1.94 | O=c1cc(N2CCOCC2)oc2c(-c3cccc4c3sc3ccccc34)cccc12 [NU7441 (KU-57788)]
-0.332 | -0.366 | -0.841 | -1.08 | Nc1ncnc2c1c(-c1cccc(OCc3ccccc3)c1)cn2[C@H]1C[C@@H](CN2CCC2)C1 [NVP-AEW541]
-0.0503 | 0.0902 | -2.05 | -0.914 | Cc1ccc(C(=O)Nc2cccc(C(F)(F)F)c2)cc1Nc1nc(-c2cccnc2)nc2c1cnn2C [NVP-BHG712]
-0.0846 | -0.602 | -0.913 | -0.999 | Fc1cc(-c2cccc3ncc(-c4cnn(C5CCNCC5)c4)nc23)cc(F)c1CN1CCOCC1 [NVP-BSK805 2HCl]
-0.283 | -0.37 | -0.84 | -0.593 | Cn1cc(-c2ccc3ncc(Cc4ccc5ncccc5c4)n3n2)cn1 [NVP-BVU972]
-5.14 | -2.84 | -19.8 | -9.25 | Cc1cn(-c2cc(NC(=O)c3ccc(C)c(Nc4nccc(-c5cccnc5)n4)c3)cc(C(F)(F)F)c2)cn1 [Nilotinib (AMN-107)]
-0.154 | -0.223 | -0.677 | -1.32 | COC(=O)c1ccc2c(c1)NC(=O)/C2=C(\Nc1ccc(N(C)C(=O)CN2CCN(C)CC2)cc1)c1ccccc1 [Nintedanib (BIBF 1120)]
-0.418 | -0.417 | -0.416 | -1.03 | COc1cccc2cc(-c3nc([C@H]4CC[C@H](C(=O)O)CC4)n4ncnc(N)c34)[nH]c12 [OSI-027]
-0.201 | -0.412 | -1.2 | -0.652 | C#Cc1cccc(Nc2ncnc3cc(OCCOC)c(OCCO)cc23)c1 [OSI-420]
-0.547 | -0.681 | -0.97 | -0.53 | C[C@]1(O)C[C@@H](c2nc(-c3ccc4ccc(-c5ccccc5)nc4c3)c3c(N)nccn32)C1 [OSI-906 (Linsitinib)]

ΔTm at 10 µM (ZmDRIK1-R187-P492) [°C] | ΔTm at 10 µM (ZmDRIK1-K217-S514) [°C] | ΔTm at 10 µM [1] [°C] | ΔTm at 10 µM (ZmDRIK1-K217-P492) [°C] | SMILES
-3.67 | -5.53 | -0.0551 | -0.971 | O=C(Nc1ccc(OC(F)(F)F)cc1)c1sccc1NCc1ccnc2ccccc12 [OSI-930]
-0.274 | -0.359 | -0.748 | -0.275 | CN1CCC(c2c(O)cc(O)c3c(=O)cc(-c4ccccc4Cl)oc23)C1CO (stereo not shown) [P276-00]
-0.0775 | -0.33 | -1.1 | -1.13 | COc1cccc(-c2cc(=O)c3ccccc3o2)c1N [PD98059]
0.724 | 0.721 | -0.108 | -0.0923 | C=CC(=O)Nc1ccc2ncnc(Nc3cccc(Br)c3)c2c1 [PD168393]
-0.212 | -0.228 | -0.711 | -0.962 | CCN(CC)CCCCNc1ncc2cc(-c3cc(OC)cc(OC)c3)c(NC(=O)NC(C)(C)C)nc2n1 [PD173074]
-0.72 | -0.595 | -1.36 | -2.14 | CSc1cccc(Nc2ncc3cc(-c4c(Cl)cccc4Cl)c(=O)n(C)c3n2)c1 [PD173955]
0.042 | -0.114 | -0.924 | -1.33 | O=C(NOCC(O)CO)c1cc(Br)c(F)c(F)c1Nc1ccc(I)cc1F (stereo not shown) [PD318088]
-0.228 | -0.328 | -0.63 | -1.09 | Cn1cc(-c2[nH]c3cc(NC(=O)[C@H](N)C4CCCCC4)cc4c3c2C=NNC4=O)cn1 [PF-477736]
0.148 | 0.0316 | -0.638 | -1.45 | CS(=O)(=O)c1cccc(CNc2nc(Nc3ccc4c(c3)CCC(=O)N4)ncc2C(F)(F)F)c1 [PF-573228]
-0.393 | -0.258 | -0.774 | -0.748 | Cc1nc(Nc2n[nH]c3c2CN(C(=O)N[C@H](CN(C)C)c2ccccc2)C3(C)C)c2sccc2n1 [PF-3758309]
-0.0503 | -0.0615 | -0.576 | -0.909 | OCCn1cc(-c2cnc3nnn(Cc4ccc5ncccc5c4)c3n2)cn1 [PF-04217903]
-0.18 | -0.31 | -0.814 | -0.953 | COc1ccc(-c2cc3c(C)nc(N)nc3n([C@H]3CC[C@H](OCCO)CC3)c2=O)cn1 [PF-04691502]
-0.28 | -0.43 | -0.839 | -0.248 | CNC(=O)c1ccc(C)c(-n2c(C)cc(OCc3ccc(F)cc3F)c(Br)c2=O)c1 [PH-797804]
-0.648 | -0.843 | -0.988 | -1.25 | Cc1[nH]c(/C=C2\C(=O)Nc3ccc(S(=O)(=O)Cc4c(Cl)cccc4Cl)cc32)c(C)c1C(=O)N1CCC[C@@H]1CN1CCCC1 [PHA-665752]
-0.18 | -0.247 | -0.776 | -0.924 | CCc1cccc(CC)c1NC(=O)N1Cc2[nH]nc(NC(=O)c3ccc(N4CCN(C)CC4)cc3)c2C1 [PHA-680632]
-0.213 | -0.125 | -0.701 | -0.984 | O=C1NCCc2[nH]c(-c3ccncc3)cc21 [PHA-767491]
-0.158 | -0.312 | -0.826 | -0.634 | CC(C)CC(=O)Nc1n[nH]c2c1CN(C(=O)C1CCN(C)CC1)C2(C)C [PHA-793887]
-0.255 | -0.296 | -1.24 | -1.79 | CCCCCCCCCCCCc1ccc(S(=O)(=O)Nc2nncs2)cc1 [PHT-427]

SMILES | ΔTm at 10 µM (ZmDRIK1-R187-P492) [°C] | ΔTm at 10 µM (ZmDRIK1-K217-S514) [°C] | ΔTm at 10 µM [1] [°C] | ΔTm at 10 µM (ZmDRIK1-K217-P492) [°C]
NCC(=O)Nc1ccc(-n2nc(C(F)(F)F)cc2-c2ccc3c(ccc4ccccc43)c2)cc1 [OSU-03012 (AR-12)] | -1.36 | 0.388 | -0.382 | -8.69
